Assay [1] addresses T1, Peregrin (Homo sapiens) (UniProt P55201).
T1 sequence (whole entry): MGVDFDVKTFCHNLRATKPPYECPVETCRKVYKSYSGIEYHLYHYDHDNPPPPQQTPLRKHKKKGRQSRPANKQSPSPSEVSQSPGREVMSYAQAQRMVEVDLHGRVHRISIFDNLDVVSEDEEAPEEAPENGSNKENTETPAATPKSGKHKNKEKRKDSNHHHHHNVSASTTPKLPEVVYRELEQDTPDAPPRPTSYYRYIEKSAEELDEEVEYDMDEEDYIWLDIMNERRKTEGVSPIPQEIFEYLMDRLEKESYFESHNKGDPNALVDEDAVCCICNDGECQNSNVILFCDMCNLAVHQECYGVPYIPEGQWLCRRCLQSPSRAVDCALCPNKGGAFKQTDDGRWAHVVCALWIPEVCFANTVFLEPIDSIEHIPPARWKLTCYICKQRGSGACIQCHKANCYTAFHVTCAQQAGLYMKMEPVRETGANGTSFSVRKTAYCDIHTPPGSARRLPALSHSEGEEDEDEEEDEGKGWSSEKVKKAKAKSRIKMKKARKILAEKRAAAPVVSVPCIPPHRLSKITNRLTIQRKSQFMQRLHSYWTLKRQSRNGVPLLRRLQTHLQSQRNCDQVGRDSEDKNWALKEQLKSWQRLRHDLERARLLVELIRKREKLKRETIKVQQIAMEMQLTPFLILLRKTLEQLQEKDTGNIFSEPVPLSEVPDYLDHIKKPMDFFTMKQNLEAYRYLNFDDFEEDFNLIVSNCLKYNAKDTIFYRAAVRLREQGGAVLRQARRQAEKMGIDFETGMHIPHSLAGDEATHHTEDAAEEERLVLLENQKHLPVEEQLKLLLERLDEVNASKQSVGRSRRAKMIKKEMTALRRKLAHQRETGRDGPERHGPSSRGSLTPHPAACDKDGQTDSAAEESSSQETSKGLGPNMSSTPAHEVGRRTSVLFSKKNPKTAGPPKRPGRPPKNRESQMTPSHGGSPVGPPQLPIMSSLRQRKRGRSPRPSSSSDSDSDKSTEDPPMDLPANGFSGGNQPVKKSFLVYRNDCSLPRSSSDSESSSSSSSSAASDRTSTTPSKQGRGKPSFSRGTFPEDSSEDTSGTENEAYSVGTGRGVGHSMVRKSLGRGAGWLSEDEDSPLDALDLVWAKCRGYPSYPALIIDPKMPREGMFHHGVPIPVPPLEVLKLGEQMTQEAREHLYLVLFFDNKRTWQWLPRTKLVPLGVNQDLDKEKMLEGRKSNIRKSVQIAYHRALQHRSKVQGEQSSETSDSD
The conditions noted are these: Compound concentration 20.0 uM, Protein concentration 2.0 uM, Result type QC Liability.

Assay [2] concerns the target Fibroblast growth factor receptor 3 (Homo sapiens) (UniProt P22607). The conditions noted are these: Compound concentration 20.0 uM, Protein concentration 2.0 uM, Result type QC Liability.
Description: Thermal Shift Assay. Domain: start/stop: P449-E759
In assay [3] the target is T2, Peripheral plasma membrane protein CASK (Homo sapiens, UniProt O14936).
T2 sequence (O14936 whole entry): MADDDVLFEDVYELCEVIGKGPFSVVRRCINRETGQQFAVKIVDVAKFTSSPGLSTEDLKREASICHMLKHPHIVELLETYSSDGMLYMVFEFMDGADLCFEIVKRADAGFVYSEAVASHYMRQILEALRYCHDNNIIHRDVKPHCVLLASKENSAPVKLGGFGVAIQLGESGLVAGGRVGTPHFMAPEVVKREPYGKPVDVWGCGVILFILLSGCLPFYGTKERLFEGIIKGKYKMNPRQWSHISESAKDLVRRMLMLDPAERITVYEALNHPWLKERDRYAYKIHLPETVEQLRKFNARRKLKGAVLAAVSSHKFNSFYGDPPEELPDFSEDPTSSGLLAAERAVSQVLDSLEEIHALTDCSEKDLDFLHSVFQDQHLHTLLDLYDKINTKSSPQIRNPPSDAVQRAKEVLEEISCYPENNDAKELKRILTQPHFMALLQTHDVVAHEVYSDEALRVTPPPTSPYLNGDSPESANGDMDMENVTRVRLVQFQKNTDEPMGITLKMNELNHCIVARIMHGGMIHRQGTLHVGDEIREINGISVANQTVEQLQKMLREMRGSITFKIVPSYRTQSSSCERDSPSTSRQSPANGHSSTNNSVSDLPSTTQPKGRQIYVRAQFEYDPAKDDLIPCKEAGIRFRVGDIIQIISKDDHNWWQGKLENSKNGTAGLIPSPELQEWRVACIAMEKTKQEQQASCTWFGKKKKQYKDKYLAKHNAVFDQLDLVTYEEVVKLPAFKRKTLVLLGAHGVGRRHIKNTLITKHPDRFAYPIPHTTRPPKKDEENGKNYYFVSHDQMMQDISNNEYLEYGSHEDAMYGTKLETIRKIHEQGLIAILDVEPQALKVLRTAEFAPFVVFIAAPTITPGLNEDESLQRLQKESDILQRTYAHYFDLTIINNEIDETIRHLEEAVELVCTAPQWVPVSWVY
The assay can be described thus: (§1) Cellular target engagement assay with: CASK. On the set-up: species or system HEK-293T; cell line HEK293T.

Assay [4] addresses T3, Peripheral plasma membrane protein CASK (Homo sapiens) (UniProt O14936).
T3 sequence (whole entry): T2 sequence (O14936 whole entry)
Described as §1. Also noted: cell line HEK293T. The note with it: HEK-293T, NanoBRET Ttracer Tracer K5. (In general: In BRET a luciferase serves as donor, and the signal depends on an acceptor being close.)

Assay [5] concerns the target T1, Peregrin (Homo sapiens). The conditions noted are these: Compound concentration 20.0 uM, Protein concentration 2.0 uM, Result type QC Liability. The source holds these as a separate data set.
Assay [6] concerns the target SRSF protein kinase 1 (Homo sapiens) (UniProt Q96SB4). The note with it: HEK-293T, NanoBRET Ttracer MW375.
Description: Cellular target engagement assay with: SRPK1
The target of assay [7] is SRSF protein kinase 2 (Homo sapiens) (UniProt P78362). The note with it: HEK-293T, NanoBRET Ttracer MW375.
SRSF protein kinase 2 (Homo sapiens), sequence (P78362 whole entry, looked up, the tested form may be a part): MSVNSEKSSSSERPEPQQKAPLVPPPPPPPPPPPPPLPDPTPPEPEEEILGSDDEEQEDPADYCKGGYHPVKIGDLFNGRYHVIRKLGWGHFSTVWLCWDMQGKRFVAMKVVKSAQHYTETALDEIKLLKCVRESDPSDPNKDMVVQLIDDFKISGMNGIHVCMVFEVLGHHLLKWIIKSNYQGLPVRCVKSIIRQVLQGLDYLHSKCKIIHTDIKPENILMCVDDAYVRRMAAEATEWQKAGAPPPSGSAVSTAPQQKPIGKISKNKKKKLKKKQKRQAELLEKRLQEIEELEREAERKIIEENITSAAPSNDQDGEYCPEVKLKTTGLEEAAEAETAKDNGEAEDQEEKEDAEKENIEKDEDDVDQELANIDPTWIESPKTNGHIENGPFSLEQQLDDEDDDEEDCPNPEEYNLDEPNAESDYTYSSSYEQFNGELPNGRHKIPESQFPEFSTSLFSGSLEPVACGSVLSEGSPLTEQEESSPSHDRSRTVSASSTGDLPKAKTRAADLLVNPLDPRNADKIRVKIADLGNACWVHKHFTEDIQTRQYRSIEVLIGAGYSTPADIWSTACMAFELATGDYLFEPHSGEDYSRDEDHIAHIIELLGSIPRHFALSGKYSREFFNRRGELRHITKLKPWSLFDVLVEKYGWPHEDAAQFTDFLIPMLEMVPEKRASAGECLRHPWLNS
Description: Cellular target engagement assay with: SRPK2
Assay [8] has as its target T4, Discoidin domain-containing receptor 2 (Homo sapiens) (UniProt Q16832).
T4 sequence (whole entry): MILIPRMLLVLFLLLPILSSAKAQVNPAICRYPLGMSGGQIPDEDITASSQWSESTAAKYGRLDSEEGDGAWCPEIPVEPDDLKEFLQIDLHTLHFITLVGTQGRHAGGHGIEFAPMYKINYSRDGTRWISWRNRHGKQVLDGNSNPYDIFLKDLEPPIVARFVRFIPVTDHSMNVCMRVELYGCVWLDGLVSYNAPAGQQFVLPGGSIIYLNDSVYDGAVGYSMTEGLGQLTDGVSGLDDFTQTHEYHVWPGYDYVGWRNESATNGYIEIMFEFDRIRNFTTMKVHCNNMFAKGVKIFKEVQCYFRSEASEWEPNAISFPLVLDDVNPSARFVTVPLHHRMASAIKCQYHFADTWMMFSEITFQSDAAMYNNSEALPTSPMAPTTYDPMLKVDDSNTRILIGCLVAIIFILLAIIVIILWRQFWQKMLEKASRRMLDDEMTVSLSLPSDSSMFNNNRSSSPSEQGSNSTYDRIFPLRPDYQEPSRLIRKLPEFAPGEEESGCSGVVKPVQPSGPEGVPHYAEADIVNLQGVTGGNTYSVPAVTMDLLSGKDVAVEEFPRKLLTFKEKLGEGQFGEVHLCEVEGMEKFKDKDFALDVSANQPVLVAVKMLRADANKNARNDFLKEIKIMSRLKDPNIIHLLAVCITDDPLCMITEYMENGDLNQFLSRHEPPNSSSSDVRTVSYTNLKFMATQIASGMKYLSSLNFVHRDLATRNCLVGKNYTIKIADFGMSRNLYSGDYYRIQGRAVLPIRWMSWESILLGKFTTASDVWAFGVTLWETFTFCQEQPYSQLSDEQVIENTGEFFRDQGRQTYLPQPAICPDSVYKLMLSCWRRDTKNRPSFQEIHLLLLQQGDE
Description: Cellular target engagement assay with: DDR2. The conditions noted are these: HEK-293T, NanoBRET Ttracer Tracer K4. On the set-up: cell line HEK293T.

In assay [9] the target is Mitogen-activated protein kinase 11 (Homo sapiens) (UniProt Q15759). Description: Cellular target engagement assay with: MAPK11. On the set-up: cell line HEK293T. The note with it: HEK-293T, NanoBRET Ttracer Tracer K10.
Mitogen-activated protein kinase 11 (Homo sapiens), sequence (Q15759 whole entry): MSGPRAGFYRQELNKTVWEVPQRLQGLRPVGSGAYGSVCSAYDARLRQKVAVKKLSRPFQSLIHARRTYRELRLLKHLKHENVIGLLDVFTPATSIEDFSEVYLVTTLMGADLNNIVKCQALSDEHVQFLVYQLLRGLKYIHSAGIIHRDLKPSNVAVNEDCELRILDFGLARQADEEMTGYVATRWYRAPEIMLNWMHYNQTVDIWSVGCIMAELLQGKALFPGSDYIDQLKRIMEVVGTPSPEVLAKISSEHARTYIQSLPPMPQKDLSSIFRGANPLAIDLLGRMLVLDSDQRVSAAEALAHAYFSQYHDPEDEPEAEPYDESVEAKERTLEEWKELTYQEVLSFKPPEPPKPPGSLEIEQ
For assay [10], the target named is Mitogen-activated protein kinase 14 (Homo sapiens) (UniProt Q16539). Description: Cellular target engagement assay with: MAPK14. The conditions noted are these: HEK-293T, NanoBRET Ttracer Tracer K10. Also noted: cell line HEK293T.
Mitogen-activated protein kinase 14 (Homo sapiens), sequence (Q16539 whole entry, the tested form may be a part): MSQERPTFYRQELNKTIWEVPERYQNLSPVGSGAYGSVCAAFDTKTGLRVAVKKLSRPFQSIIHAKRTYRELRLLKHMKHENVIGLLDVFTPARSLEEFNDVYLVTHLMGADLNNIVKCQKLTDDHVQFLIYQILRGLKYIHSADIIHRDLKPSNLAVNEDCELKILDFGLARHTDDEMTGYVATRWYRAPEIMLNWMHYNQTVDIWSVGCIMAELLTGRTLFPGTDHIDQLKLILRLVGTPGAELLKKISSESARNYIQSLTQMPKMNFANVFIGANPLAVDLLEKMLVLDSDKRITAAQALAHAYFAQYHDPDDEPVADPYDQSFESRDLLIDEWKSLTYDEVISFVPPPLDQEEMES
Assay [11] has as its target Epithelial discoidin domain-containing receptor 1 (Homo sapiens) (UniProt Q08345). Description: Cellular target engagement assay with: DDR1. On the set-up: cell line HEK293T. The note with it: HEK-293T, NanoBRET Ttracer Tracer K4.

SMILES strings stand for the structures.

In general, IC50 refers to the midpoint of a concentration-inhibition curve.

Fibroblast growth factor receptor 3 (Homo sapiens), sequence (P22607 23-806 limits assumed): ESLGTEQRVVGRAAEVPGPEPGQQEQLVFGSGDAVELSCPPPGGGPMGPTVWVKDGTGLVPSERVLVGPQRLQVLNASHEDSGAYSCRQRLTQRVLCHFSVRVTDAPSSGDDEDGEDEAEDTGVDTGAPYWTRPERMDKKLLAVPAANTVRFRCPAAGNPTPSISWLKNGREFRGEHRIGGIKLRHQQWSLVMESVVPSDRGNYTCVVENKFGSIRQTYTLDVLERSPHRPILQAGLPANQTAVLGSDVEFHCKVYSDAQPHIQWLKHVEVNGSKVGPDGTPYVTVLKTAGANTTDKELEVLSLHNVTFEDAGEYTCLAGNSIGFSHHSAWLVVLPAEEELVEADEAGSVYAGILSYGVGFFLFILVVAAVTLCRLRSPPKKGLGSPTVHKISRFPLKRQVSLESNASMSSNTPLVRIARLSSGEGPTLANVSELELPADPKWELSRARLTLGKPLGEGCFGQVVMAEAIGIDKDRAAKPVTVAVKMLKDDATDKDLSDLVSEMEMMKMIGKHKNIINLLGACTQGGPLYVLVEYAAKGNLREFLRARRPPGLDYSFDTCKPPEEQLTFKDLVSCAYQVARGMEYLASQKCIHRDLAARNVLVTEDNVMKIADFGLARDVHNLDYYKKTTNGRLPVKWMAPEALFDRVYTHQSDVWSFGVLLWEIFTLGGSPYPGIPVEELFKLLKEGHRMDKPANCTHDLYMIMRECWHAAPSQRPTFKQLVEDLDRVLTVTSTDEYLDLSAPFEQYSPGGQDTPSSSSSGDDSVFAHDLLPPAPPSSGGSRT
SRSF protein kinase 1 (Homo sapiens), sequence (Q96SB4 whole entry): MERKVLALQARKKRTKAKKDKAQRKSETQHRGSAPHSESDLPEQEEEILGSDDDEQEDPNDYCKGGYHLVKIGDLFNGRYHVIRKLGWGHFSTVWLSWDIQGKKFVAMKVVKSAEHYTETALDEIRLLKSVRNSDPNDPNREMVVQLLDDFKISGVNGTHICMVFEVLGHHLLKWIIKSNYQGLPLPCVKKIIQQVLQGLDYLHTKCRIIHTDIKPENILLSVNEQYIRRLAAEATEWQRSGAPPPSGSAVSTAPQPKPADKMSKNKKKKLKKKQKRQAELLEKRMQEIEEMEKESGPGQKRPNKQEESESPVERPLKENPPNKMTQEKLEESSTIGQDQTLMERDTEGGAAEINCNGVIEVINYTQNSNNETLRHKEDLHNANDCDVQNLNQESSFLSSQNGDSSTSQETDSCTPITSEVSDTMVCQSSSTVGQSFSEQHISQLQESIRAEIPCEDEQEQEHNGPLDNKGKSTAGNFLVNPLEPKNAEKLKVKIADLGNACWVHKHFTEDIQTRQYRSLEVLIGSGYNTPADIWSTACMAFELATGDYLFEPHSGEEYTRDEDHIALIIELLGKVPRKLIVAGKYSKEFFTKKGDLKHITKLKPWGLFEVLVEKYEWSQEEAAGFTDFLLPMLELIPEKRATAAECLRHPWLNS
Epithelial discoidin domain-containing receptor 1 (Homo sapiens), sequence (Q08345 whole entry, the tested form may be a part): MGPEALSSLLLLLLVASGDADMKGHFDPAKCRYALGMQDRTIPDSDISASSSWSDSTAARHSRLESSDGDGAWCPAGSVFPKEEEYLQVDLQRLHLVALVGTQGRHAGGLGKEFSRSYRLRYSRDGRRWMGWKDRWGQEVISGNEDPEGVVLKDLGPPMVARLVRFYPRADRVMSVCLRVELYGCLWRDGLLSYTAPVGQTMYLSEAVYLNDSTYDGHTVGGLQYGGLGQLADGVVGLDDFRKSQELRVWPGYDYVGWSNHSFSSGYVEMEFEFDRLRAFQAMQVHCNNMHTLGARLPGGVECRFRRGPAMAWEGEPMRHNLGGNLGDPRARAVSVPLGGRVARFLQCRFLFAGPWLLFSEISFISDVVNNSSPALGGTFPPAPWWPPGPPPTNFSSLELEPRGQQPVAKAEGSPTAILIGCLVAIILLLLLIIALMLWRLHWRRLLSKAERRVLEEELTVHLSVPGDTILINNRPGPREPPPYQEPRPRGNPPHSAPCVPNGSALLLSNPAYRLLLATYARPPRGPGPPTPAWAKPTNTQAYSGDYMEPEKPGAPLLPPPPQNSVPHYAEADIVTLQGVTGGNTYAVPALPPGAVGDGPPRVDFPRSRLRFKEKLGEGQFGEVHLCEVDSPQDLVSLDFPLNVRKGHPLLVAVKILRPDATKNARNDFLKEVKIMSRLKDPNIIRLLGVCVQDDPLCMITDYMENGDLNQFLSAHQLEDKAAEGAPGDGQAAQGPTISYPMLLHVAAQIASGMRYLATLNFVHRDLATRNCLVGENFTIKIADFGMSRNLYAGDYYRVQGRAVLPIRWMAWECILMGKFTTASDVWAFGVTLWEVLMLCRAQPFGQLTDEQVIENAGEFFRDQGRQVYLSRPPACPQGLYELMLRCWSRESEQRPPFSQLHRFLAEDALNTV

Take `O=C(NCCCN1CCOC1=O)c1cnc(NCc2cc(Br)ccc2Br)nc1NC1CCCC1`: the ΔTm (on Peregrin (Homo sapiens) [1]; in assay [2]) was 0 c in each case. Besides, in [3], the IC50 is 0.08 µM. In addition, in assay [4], the LogIC50 was -7.
On to `CN(c1ncccc1CNc1ccnc(-c2nc3c(F)c(Cl)ccc3[nH]2)n1)S(C)(=O)=O`, for which the ΔTm on Peregrin (Homo sapiens) [5] was -1.19 c; in [2] it was 0.31 c. Further, the LogIC50 in assay [6] and in [7] was -7 in each case.
Regarding `CS(=O)(=O)N1CCCC(NC(=O)[C@H](CCC2CCCCC2)NC(=O)c2ccc(CNC(=O)c3cnc4ccccn34)cc2)C1` (some centres undefined), the LogIC50 in assay [8] was -8; in assay [9], -7; in assay [10] it was -7; in assay [11], -8. Also, the ΔTm on Peregrin (Homo sapiens) [1] was -0.163 c; in assay [2] it was -0.0946 c.

The values above are taken from ChEMBL document CHEMBL5058541, “EUbOPEN Chemogenomics Library 2 (NanoBRET)” (2022).
